Measurements from patent publication US7001887B2, “Peptide derivatives” (priority 2001, dated 2006).
Read-outs that look alike come from different tables or passages of the source.

How the values were obtained:
human thrombin = target: T1, human thrombin (Homo sapiens, UniProt P00734); experiment: Assay for thrombin-inhibiting activity (chromogenic substrate FVR-pNa); format: biochemical; conditions: for Thrombin selectivity: ratio IC50 Thrombin / IC50 Factor VIIa
T1 construct: addition of 20 μ2L human thrombin (5 U/mL, SIGMA, T 1063); purchased SIGMA T 1063

human factor VIIa = human factor VIIa (Homo sapiens, UniProt P08709); experiment: biochemical
Experimental: 1. Assay for FVIIa-inhibiting Activity
A 10 vol % DMSO solution of a test compound (20 μL) was mixed with 40 μL Thromborel®S (50 mg/mL, Dade Behring, GTS-200A), 20 μL Spectrozyme®fVIIa (5 mmol/L, American Diagnostica Inc., #217L), 20 μL Tris buffer (500 mmol/L Tris/HCl, pH 7.5, 1500 mmol/L NaCl, 50 mmol/L CaCl2) and 80 μL distilled water, followed by stirring. […] The initial reaction velocity was set to 100% in the case of adding 10 vol % DMSO alone, instead of a test compound. […] This concentration was defined as an IC50 value.

[1] = 50% inhibition of initial reaction velocity, room temperature, absorbance at 405 nm, read-out: IC50 Thrombin

Sequence of human factor VIIa (P08709 213-466 limits assumed): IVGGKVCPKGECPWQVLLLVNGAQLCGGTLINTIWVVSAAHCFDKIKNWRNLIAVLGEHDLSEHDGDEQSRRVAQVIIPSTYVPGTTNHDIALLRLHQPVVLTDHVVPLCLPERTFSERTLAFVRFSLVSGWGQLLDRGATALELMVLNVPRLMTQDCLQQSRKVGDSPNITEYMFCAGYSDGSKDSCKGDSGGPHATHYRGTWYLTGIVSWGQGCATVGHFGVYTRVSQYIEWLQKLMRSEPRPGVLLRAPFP
Sequence of human factor VIIa (P08709 61-212 limits assumed): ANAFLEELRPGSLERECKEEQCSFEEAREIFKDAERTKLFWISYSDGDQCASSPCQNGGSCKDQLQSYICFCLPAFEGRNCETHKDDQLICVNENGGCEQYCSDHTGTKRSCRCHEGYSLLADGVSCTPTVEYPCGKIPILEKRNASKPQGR
Sequence of human factor VIIa (P13726 33-295 partner): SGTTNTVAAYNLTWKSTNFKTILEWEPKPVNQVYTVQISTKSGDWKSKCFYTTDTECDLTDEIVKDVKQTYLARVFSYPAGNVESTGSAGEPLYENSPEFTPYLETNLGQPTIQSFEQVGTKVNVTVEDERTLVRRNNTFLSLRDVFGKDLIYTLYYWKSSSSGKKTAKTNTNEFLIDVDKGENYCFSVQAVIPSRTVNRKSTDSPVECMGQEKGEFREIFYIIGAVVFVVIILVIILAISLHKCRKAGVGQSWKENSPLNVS

Row | SMILES | IC50 (human thrombin; [1]) [nM] | IC50 (human factor VIIa) [nM] | Thrombin selectivity (human thrombin) | IC50 (human thrombin) [nM]
1 | CCS(=O)(=O)N[C@H](Cc1ccc(-c2ccccc2)cc1)C(=O)N[C@@H](CCC(N)=O)C(=O)NCc1ccc(C(=N)N)cc1 [Example 65] | 9420 | – | – | –
2 | CCS(=O)(=O)N[C@H](Cc1c[nH]c2ccc(C)cc12)C(=O)N[C@@H](CCC(N)=O)C(=O)NCc1ccc(C(=N)N)cc1 [Example 82] | 12500 | 131 | – | –
3 | CCCOc1ccc2[nH]cc(C[C@@H](NS(=O)(=O)CC)C(=O)N[C@@H](CCC(N)=O)C(=O)NCc3ccc(C(=N)N)cc3)c2c1 [Example 83] | 14400 | 55 | – | –
4 | CCS(=O)(=O)N[C@H](Cc1ccc(OC)cc1)C(=O)N[C@@H](CCC(N)=O)C(=O)NCc1ccc(C(=N)N)cc1 [Example 73] | 397 | 81 | 5 | –
5 | N=C(N)c1ccc(CNC(=O)[C@H](CCC(N)=O)NC(=O)[C@H](N)Cc2ccc(-c3ccccc3)cc2)cc1 [Example 66] | 59100 | 2940 | 20 | –
6 | N=C(N)c1ccc(CNC(=O)[C@H](CCC(N)=O)NC(=O)[C@@H](Cc2c[nH]c3ccccc23)NS(=O)(=O)CC(=O)O)cc1 [Example 146] | 80200 | 153 | 524 | –
7 | CCS(=O)(=O)N[C@H](Cc1ccc(C(=O)c2ccccc2)cc1)C(=O)N[C@@H](CCC(N)=O)C(=O)NCc1ccc(C(=N)N)cc1 [Example 81] | 5690 | 177 | – | –
8 | CCS(=O)(=O)N[C@H](Cc1c[nH]c2ccc(OC)cc12)C(=O)N[C@@H](CCC(N)=O)C(=O)NCc1ccc(C(=N)N)cc1 [Example 148] | 8330 | 65 | – | –
9 | CCS(=O)(=O)N[C@H](Cc1c[nH]c2ccc(OCc3ccccc3)cc12)C(=O)N[C@@H](CCC(N)=O)C(=O)NCc1ccc(C(=N)N)cc1 [Example 170] | 9420 | 37 | – | –
10 | CCS(=O)(=O)N[C@H](Cc1ccc(-c2ccccc2)cc1)C(=O)N[C@@H](CCSC)C(=O)NCc1ccc(C(=N)N)cc1 [Example 67] | – | 341 | 1 | 2280
11 | N=C(N)c1ccc(CNC(=O)[C@H](CCC(N)=O)NC(=O)[C@@H](Cc2c[nH]c3ccccc23)NS(=O)(=O)Cc2cccc(C(=O)O)c2)cc1 [Example 7] | 17900 | 37 | 483 | –
12 | CCS(=O)(=O)N[C@H](Cc1c[nH]c2ccccc12)C(=O)N[C@@H](CCC(N)=O)C(=O)NCc1ccc(C(=N)N)cc1 [Example 5, N-(Ethylsulfonyl)-D-tryptophyl-N^1-(4-amidinobenzyl)-L-glutamide] | 5880 | 62 | 95 | –
13 | CCS(=O)(=O)N[C@H](Cc1c[nH]c2ccc(OCc3cccc(C(=O)O)c3)cc12)C(=O)N[C@@H](CCC(N)=O)C(=O)NCc1ccc(C(=N)N)cc1 [Example 22, 5-[(3-Carboxybenzyl)oxy]-N-(ethylsulfonyl)-D-tryptophyl-N^1-{4-[amino(imino)methyl]benzyl}-L-glutamide] | 17500 | 39 | – | –
